Tests used:
[1] = target: T1, Glutathione S-transferase P (Homo sapiens, UniProt P09211); assay: Inhibition against glutathione S-transferase pi using GSH (0.1-3mM), 1 mM 1-chloro-2,4-dinitrobenzene
[2] = target: T1, Glutathione S-transferase P; assay: Inhibition constant against glutathione S-transferase pi using GSH (0.1-3mM), 1 mM 1-chloro-2,4-dinitrobenzene

T1 sequence (P09211 whole entry): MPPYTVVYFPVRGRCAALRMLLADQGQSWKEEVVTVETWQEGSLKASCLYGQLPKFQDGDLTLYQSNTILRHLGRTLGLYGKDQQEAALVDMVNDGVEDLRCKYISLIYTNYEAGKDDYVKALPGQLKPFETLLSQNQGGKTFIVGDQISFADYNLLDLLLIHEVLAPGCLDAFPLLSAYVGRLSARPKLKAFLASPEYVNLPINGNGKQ

Row | IC50 [1] [µM] | Ki [2] [µM] | Compound
1 | 9 | 1.11 | NC(CCC(=O)NC(CSC(CO)c1ccccc1)C(=O)NCC(=O)O)C(=O)O (stereo not drawn)
2 | 5.5 | 0.66 | NC(CCC(=O)NC(CSC(C(=O)O)c1ccccc1)C(=O)NCC(=O)O)C(=O)O (stereo not drawn)
3 | 4.7 | 0.49 | NC(CCC(=O)NC(CSCC(O)c1ccccc1)C(=O)NCC(=O)O)C(=O)O (stereo not drawn)
4 | 280 | 187 | NC(CCC(=O)NC(CSCCO)C(=O)NCC(=O)O)C(=O)O (stereo not drawn)

From ChEMBL document CHEMBL1140414, “Molecular modeling, synthesis, and preliminary biological evaluation of glutathione-S-transferase inhibitors as potential therapeutic agents” (J Med Chem, 2005)
